Measurements reported in publication PMC4597782 (Nature, 2015).

Tests used:
mGluR2 [1] = molecular target: T1, mGluR2 (Rattus norvegicus, UniProt P31421); assay type: biochemical
mGluR2 [2] = molecular target: T1, mGluR2; assay type: cell-based; conditions: normalized to response to 1 mM glutamate
mGluR3 [3] = molecular target: T2, mGluR3 (Rattus norvegicus, UniProt P31422); assay type: biochemical; conditions: for average active state lifetime: 2 mM Ca2+ or 100 nM glutamate
[4] = molecular target: mGluR2 WT/YADA heterodimer (Rattus norvegicus, UniProt P31421, D295A/Y216A); test: smFRET of mGluR2 WT/YADA heterodimers; assay type: biochemical; conditions: near-saturating glutamate for the WT subunit
[5] = molecular target: mGluR2-YADA (Y216A and D295A) (Rattus norvegicus, UniProt P31421, D295A/Y216A); test: smFRET of glutamate-insensitive mutant mGluR2-YADA; assay type: biochemical; conditions: 50 μM or 1 mM glutamate
mGluR3 [6] = molecular target: T2, mGluR3; assay type: cell-based; conditions: read-out: EC50 of glutamate-dependent decrease in ensemble FRET; HEK293T cells

T1 sequence (P31421 19-872): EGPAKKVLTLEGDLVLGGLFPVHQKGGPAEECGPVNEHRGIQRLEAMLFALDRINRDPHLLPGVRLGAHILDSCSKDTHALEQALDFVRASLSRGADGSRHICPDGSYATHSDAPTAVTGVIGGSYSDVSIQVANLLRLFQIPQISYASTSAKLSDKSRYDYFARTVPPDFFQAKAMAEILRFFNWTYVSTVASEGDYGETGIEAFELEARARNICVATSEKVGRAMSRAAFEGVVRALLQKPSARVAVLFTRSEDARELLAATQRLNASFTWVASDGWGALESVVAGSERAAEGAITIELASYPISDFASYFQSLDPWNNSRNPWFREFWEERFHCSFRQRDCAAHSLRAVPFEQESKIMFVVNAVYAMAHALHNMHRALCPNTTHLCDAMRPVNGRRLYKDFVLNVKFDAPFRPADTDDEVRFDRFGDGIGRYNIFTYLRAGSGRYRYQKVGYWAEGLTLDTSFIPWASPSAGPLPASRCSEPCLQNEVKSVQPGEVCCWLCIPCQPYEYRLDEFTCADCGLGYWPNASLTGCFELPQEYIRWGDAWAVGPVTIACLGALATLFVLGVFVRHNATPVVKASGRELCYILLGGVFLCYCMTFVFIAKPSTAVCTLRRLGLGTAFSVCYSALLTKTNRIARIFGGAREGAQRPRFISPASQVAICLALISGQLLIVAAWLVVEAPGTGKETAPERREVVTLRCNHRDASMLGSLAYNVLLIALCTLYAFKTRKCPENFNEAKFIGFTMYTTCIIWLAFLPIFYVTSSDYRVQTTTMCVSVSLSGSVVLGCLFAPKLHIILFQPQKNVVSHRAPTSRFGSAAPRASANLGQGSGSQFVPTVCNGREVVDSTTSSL
T1 sequence (P31421 19-872): as above
T2 sequence (P31422 23-879): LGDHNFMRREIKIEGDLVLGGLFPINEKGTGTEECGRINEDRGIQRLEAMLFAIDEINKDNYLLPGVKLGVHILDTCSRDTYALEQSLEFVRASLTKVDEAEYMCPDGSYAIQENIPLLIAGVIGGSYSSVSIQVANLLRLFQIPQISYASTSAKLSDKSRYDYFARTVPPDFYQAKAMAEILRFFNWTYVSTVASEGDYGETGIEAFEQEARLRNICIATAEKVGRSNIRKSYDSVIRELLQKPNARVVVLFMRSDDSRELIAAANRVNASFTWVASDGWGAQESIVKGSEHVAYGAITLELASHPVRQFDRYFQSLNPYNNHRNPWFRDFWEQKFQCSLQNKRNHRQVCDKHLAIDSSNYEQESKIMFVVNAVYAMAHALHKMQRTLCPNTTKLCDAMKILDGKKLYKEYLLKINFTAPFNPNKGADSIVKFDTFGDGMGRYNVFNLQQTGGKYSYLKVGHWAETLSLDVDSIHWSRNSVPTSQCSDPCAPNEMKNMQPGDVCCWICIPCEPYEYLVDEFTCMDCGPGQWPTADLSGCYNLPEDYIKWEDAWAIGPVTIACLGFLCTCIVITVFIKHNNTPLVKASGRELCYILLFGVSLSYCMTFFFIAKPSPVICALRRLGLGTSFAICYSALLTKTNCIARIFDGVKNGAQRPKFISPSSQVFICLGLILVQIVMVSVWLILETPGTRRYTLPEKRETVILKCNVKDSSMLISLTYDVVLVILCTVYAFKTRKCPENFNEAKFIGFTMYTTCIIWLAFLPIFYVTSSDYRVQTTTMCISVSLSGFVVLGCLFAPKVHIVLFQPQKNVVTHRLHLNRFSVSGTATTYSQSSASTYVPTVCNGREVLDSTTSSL
T2 sequence (P31422 23-879): as above
Sequence of mGluR2-YADA (Y216A and D295A) (P31421 19-872 Y216A/D295A): as the sequence (P31421 19-872) above, with Y198A, D277A counted along it
Sequence of mGluR2-YADA (Y216A and D295A) (P31421 19-872 Y216A/D295A): as the sequence (P31421 19-872) above, with Y198A, D277A counted along it
Sequence of mGluR2 WT/YADA heterodimer (P31421 19-872, stated change not applied): as the sequence (P31421 19-872) above
Sequence of mGluR2 WT/YADA heterodimer (P31421 19-872 Y216A/D295A): as the sequence (P31421 19-872) above, with Y198A, D277A counted along it

## N[C@@]1(C(=O)O)CO[C@H]2[C@H](C(=O)O)[C@H]21 [LY379268]
mGluR2 [1]; saturating agonist, compared with glutamate
  occupancy of the active (low FRET) state: more complete occupancy of the active state than glutamate

## COc1ccccc1Oc1ccc(N(Cc2cccnc2)S(=O)(=O)CC(F)(F)F)cc1 [LY48739, LY487379]
mGluR2 [2]
  effect on DCG-IV response in ensemble FRET: increases the apparent affinity and efficacy of DCG-IV
mGluR2 [1]; in the presence of DCG-IV (1 μM)
  effect on relative occupancy of the low FRET state: increased the relative occupancy of the low FRET state

## [Ca+2] [Ca^2+]
mGluR3 [3]; 0 glutamate
  effect on low FRET state occupancy: concentration-dependent increase in low FRET state occupancy
mGluR3 [3]
  average active state lifetime: 183 ms

## N[C@H](C(=O)O)C1[C@@H](C(=O)O)[C@@H]1C(=O)O (some centres unmarked) [DCG-IV]
mGluR2 [1]; saturating concentrations (≥100 μM)
  share of distribution remaining in the high and medium FRET states: ~ 30%

## N[C@@H](CCC(=O)O)C(=O)O [glutamate]
mGluR3 [3]
  average active state lifetime: 183 ms
[4]
  occupancy of the medium FRET state: ~ 55%
mGluR2 [1]; WT/WT homodimer
  maximal medium FRET occupancy: ~ 25%
[5]
  effect on the FRET histogram: no effect
mGluR3 [6]
  EC50: 500 ± 200 nM
